The values below come from patent US20140107100A1, “Benzoxazepines as Inhibitors of PI3K/mTOR and Methods of Their Use and Manufacture” (EXELIXIS, INC., priority 2010, published 2014).

The target in the test is mTOR/GbL/Raptor (mTORC1) (Homo sapiens, UniProt P42345). In words: mTOR/GbL/Raptor (mTORC1) ELISA assay, phosphorylation of 4E-BP1. Type of test: biochemical. Particulars: 0.2 nM mTORC1, 40 uM ATP, 50 nM NHis-tagged 4E-BP1, 120 minutes; read-out: IC50 in this assay (mTORC1 ELISA). As to the method: The measurement of mTORC1 enzyme activity was performed in an ELISA assay format following the phosphorylation of 4E-BP1 protein. All experiments were performed in the 384-well format. Generally, 0.5 μL DMSO containing varying concentrations of the test Compound was mixed with 15 μL enzyme solution. Kinase reactions were initiated with the addition of 15 μL of substrates-containing solution. The assay conditions were-as follows; 0.2 nM mTORC1, 40 uM ATPand 50 nM NHis-tagged4E-BP1 in20 mM Hepes, pH 7.2, 1 mM DTT, 50 mMNaC1, 10 mM MnC12, 0.02 mg/mL BSA, 0.01% CHAPS, 50 mM β-glycerophosphate. Following an incubation of 120 minutes at anibient temperature, 20 μL of the reaction volume was transferred to a Ni-Chelate-coated 384-well plate. The binding step of the 4E-BP1 protein proceeded for 60 minutes, followed by washing 4 times each with 50 uL of Tris-buffered saline solution (TBS). Anti-phospho-4E-BPl rabbit-IgG ([…]. 1:5000) in 5% BSA-TBST (0.2% Tween-20 in TBS) was added and further incubated for 60 minutes. Incubation with a secondary HRP-tagged anti-IgG was similarly performed after washing off the primary antibody (4 washes of 50 μL). Following the final wash step with TBST, 20 μL of SuperSignal ELISA Femto (Pierce Biotechnology) was added and the luminescence measured using an En Vision plate reader.
`Cc1nc2ccc(-c3cc(C)c4c(c3)CN(c3nc(N)nc(C)c3C(C)C)CCO4)cc2[nH]1` [Compound 2, 4-methyl-5-(1-methylethyl)-6-[9-methyl-7-(2-methyl-1H-benzimidazol-6-yl)-2,3-dihydro-1,4-benzoxazepin-4(5H)-yl]pyrimidin-2-amine]: the 50% inhibitory concentration (IC50) was no more than 100 nM.
Turning to `Cc1cc(-c2cnc3sc(N)nc3c2)cc2c1OCCN(c1nc(N)nc(C)c1C(C)C)C2` [Compound 3, 6-{4-[2-amino-6-methyl-5-(1-methylethyl)pyrimidin-4-yl]-9-methyl-2,3,4,5-tetrahydro-1,4-benzoxazepin-7-yl}[1,3]thiazolo[5,4-b]pyridin-2-amine], the IC50 is no more than 100 nM.
In the case of `Cc1cc(-c2cnc(N)c(S(N)(=O)=O)c2)cc2c1OCCN(c1nc(N)nc(C)c1C(C)C)C2` [Compound 5, 2-amino-5-{4-[2-amino-6-methyl-5-(1-methylethyl)pyrimidin-4-yl]-9-methyl-2,3,4,5-tetrahydro-1,4-benzoxazepin-7-yl}pyridine-3-sulfonamide], the IC50 is no more than 100 nM.
The result for `Cc1cc(-c2cnc(Cl)c(NS(C)(=O)=O)c2)cc2c1OCCN(c1nc(N)nc(C)c1C(C)C)C2` [Compound 6, N-(5-{4-[2-amino-6-methyl-5-(1-methylethyl)pyrimidin-4-yl]-9-methyl-2,3,4,5-tetrahydro-1,4-benzoxazepin-7-yl}-2-chloropyridin-3-yl)methanesulfonamide] reads no more than 100 nM.
Next, `Cc1cc(-c2cnc3sc(N)nc3c2)cc2c1OCCN(c1nc(N)nc(C)c1C)C2` [Compound 7, 6-[4-(2-amino-5,6-dimethylpyrimidin-4-yl)-9-methyl-2,3,4,5-tetrahydro-1,4-benzoxazepin-7-yl][1,3]thiazolo[5,4-b]pyridin-2-amine]: 100 to 500 nM; `CCc1c(C)nc(N)nc1N1CCOc2c(C)cc(-c3cnc4sc(N)nc4c3)cc2C1` [Compound 8, 6-[4-(2-amino-5-ethyl-6-methylpyrimidin-4-yl)-9-methyl-2,3,4,5-tetrahydro-1,4-benzoxazepin-7-yl][1,3]thiazolo[5,4-b]pyridin-2-amine]: no more than 100 nM; `C=Cc1c(C)nc(N)nc1N1CCOc2c(C)cc(-c3cnc4sc(N)nc4c3)cc2C1` [Compound 9, 6-[4-(2-amino-5-ethenyl-6-methylpyrimidin-4-yl)-9-methyl-2,3,4,5-tetrahydro-1,4-benzoxazepin-7-yl][1,3]thiazolo[5,4-b]pyridin-2-amine]: no more than 100 nM.
The result for `Cc1cc(-c2cnc3sc(N)nc3c2)cc2c1OCCN(c1nc(N)nc3c1CC(C)(C)CC3)C2` [Compound 10, 4-[7-(2-amino[1,3]thiazolo[5,4-b]pyridin-6-yl)-9-methyl-2,3-dihydro-1,4-benzoxazepin-4(5H)-yl]-6,6-dimethyl-5,6,7,8-tetrahydroquinazolin-2-amine] reads no more than 100 nM; that for `Cc1cc(-c2cnc3sc(N)nc3c2)cc2c1OCCN(c1nc(N)ncc1C(C)C)C2` [Compound 11, 6-{4-[2-amino-5-(1-methylethyl)pyrimidin-4-yl]-9-methyl-2,3,4,5-tetrahydro-1,4-benzoxazepin-7-yl}[1,3]thiazolo[5,4-b]pyridin-2-amine], no more than 100 nM.
In the case of `Cc1cc(-c2cnc3sc(N)nc3c2)cc2c1OCCN(c1nc(N)ncc1C(F)(F)F)C2` [Compound 12, 6-{4-[2-amino-5-(trifluoromethyl)pyrimidin-4-yl]-9-methyl-2,3,4,5-tetrahydro-1,4-benzoxazepin-7-yl}[1,3]thiazolo[5,4-b]pyridin-2-amine], the half-inhibitory concentration (IC50) is no more than 100 nM.
As to `Cc1cc(-c2cnc3sc(N)nc3c2)cc2c1OCCN(c1ncc(C(F)(F)F)c(N)n1)C2` [Compound 13, 6-{4-[4-amino-5-(trifluoromethyl)pyrimidin-2-yl]-9-methyl-2,3,4,5-tetrahydro-1,4-benzoxazepin-7-yl}[1,3]thiazolo[5,4-b]pyridin-2-amine], the 50% inhibitory concentration (IC50) is 100 to 500 nM.
For `Cc1cc(-c2cnc(Cl)c(NS(C)(=O)=O)c2)cc2c1OCCN(c1nc(N)ncc1C(F)(F)F)C2` [Compound 14, N-(5-{4-[2-amino-5-(trifluoromethyl)pyrimidin-4-yl]-9-methyl-2,3,4,5-tetrahydro-1,4-benzoxazepin-7-yl}-2-chloropyridin-3-yl)methanesulfonamide], the concentration for half-maximal inhibition (IC50) is no more than 100 nM.
The result for `Cc1cc(-c2cnc(Cl)c(NS(C)(=O)=O)c2)cc2c1OCCN(c1ncc(C(F)(F)F)c(N)n1)C2` [Compound 15, N-(5-{4-[4-amino-5-(trifluoromethyl)pyrimidin-2-yl]-9-methyl-2,3,4,5-tetrahydro-1,4-benzoxazepin-7-yl}-2-chloropyridin-3-yl)methanesulfonamide] reads 100 to 500 nM; that for `COCCc1c(C)nc(N)nc1N1CCOc2c(C)cc(-c3cnc4sc(N)nc4c3)cc2C1` [Compound 16, 6-(4-{2-amino-6-methyl-5-[2-(methyloxy)ethyl]pyrimidin-4-yl}-9-methyl-2,3,4,5-tetrahydro-1,4-benzoxazepin-7-yl)[1,3]thiazolo[5,4-b]pyridin-2-amine], no more than 100 nM; that for `Cc1cc(-c2cncc(NS(C)(=O)=O)c2)cc2c1OCCN(c1nc(N)nc(C)c1C(C)C)C2` [Compound 18, N-(5-{4-[2-amino-6-methyl-5-(1-methylethyl)pyrimidin-4-yl]-9-methyl-2,3,4,5-tetrahydro-1,4-benzoxazepin-7-yl}pyridin-3-yl)methanesulfonamide], 100 to 500 nM.
The result for `Cc1nc2c(c(N3CCOc4c(C)cc(-c5cnc6sc(N)nc6c5)cc4C3)n1)CC(C)(C)CC2` [Compound 20, 6-[9-methyl-4-(2,6,6-trimethyl-5,6,7,8-tetrahydroquinazolin-4-yl)-2,3,4,5-tetrahydro-1,4-benzoxazepin-7-yl][1,3]thiazolo[5,4-b]pyridin-2-amine] reads no more than 100 nM.
Next, `COc1ncc(-c2cc(C)c3c(c2)CN(c2nc(N)nc(C)c2C(C)C)CCO3)cc1NS(C)(=O)=O` [Compound 21, N-[5-{4-[2-amino-6-methyl-5-(1-methylethyl)pyrimidin-4-yl]-9-methyl-2,3,4,5-tetrahydro-1,4-benzoxazepin-7-yl}-2-(methyloxy)pyridin-3-yl]methanesulfonamide]: no more than 100 nM; `CNC(=O)c1sc(N2CCOc3c(C)cc(-c4cnc(Cl)c(NS(C)(=O)=O)c4)cc3C2)nc1C(C)C` [Compound 22, 2-[7-{6-chloro-5-[(methylsulfonyl)amino]pyridin-3-yl}-9-methyl-2,3-dihydro-1,4-benzoxazepin-4(5H)-yl]-N-methyl-4-(1-methylethyl)-1,3-thiazole-5-carboxamide]: no more than 100 nM.
On to `Cc1cc(-c2cnc3sc(N)nc3c2)cc2c1OCCN(c1ncnc3c1CC(C)(C)C=C3)C2` [Compound 23, 6-[4-(6,6-dimethyl-5,6-dihydroquinoazolin-4-yl)-9-methyl-2,3,4,5-tetrahydro-1,4-benzoxazepin-7-yl][1,3]thiazolo[5,4-b]pyridin-2-amine], for which the IC50 was no more than 100 nM.
Take `Cc1cc(-c2ccc(N)nc2)cc2c1OCCN(c1nc(N)nc(C)c1C(C)C)C2` [Compound 24, 4-[7-(6-aminopyridin-3-yl)-9-methyl-2,3-dihydro-1,4-benzoxazepin-4(5H)-yl]-6-methyl-5-(1-methylethyl)pyrimidin-2-amine]: the IC50 lay within 100 to 500 nM.
The result for `Cc1cc(-c2cnc3sc(N)nc3c2)cc2c1OCCN(c1nccc(N)n1)C2` [Compound 25, 6-[4-(4-aminopyrimidin-2-yl)-9-methyl-2,3,4,5-tetrahydro-1,4-benzoxazepin-7-yl][1,3]thiazolo[5,4-b]pyridin-2-amine] reads 100 to 500 nM.
The result for `Cc1cc(-c2cnc3sc(N)nc3c2)cc2c1OCCN(c1ncc(C#N)c(N)n1)C2` [Compound 26, 4-amino-2-[7-(2-amino[1,3]thiazolo[5,4-b]pyridin-6-yl)-9-methyl-2,3-dihydro-1,4-benzoxazepin-4(5H)-yl]pyrimidine-5-carbonitrile] reads 100 to 500 nM; that for `Cc1cc(-c2cnc3sc(N)nc3c2)cc2c1OCCN(c1ncc(C(N)=O)c(N)n1)C2` [Compound 27, 4-amino-2-[7-(2-amino[1,3]thiazolo[5,4-b]pyridin-6-yl)-9-methyl-2,3-dihydro-1,4-benzoxazepin-4(5H)-yl]pyrimidine-5-carboxamide], 100 to 500 nM; that for `Cc1cc(-c2cnc(Cl)c(NS(C)(=O)=O)c2)cc2c1OCCN(c1ncc(C#N)c(N)n1)C2` [Compound 28, N-{5-[4-(4-amino-5-cyanopyrimidin-2-yl)-9-methyl-2,3,4,5-tetrahydro-1,4-benzoxazepin-7-yl]-2-chloropyridin-3-yl}methanesulfonamide], no more than 100 nM.
Consider `Cc1cc(-c2cnc3sc(N)nc3c2)cc2c1OCCN(c1ncnc3c1CC[C@H](C)C3)C2` [Compound 30, 6-{9-methyl-4-[(7S)-7-methyl-5,6,7,8-tetrahydroquinazolin-4-yl]-2,3,4,5-tetrahydro-1,4-benzoxazepin-7-yl}[1,3]thiazolo[5,4-b]pyridin-2-amine], for which the IC50 was no more than 100 nM.
